Measurements as given in patent US20080287532A1, “OXACYCLOPENTENE-2 DERIVATIVES” (priority 2007, published 2008).
Read-outs that look alike come from different tables or passages of the source.

What was measured:
[1] = system: cellular immune response (T-cells response) to SRBC; assay: Delayed Type Hypersensitivity test (DTH), foot pad edema after SRBC challenge; assay type: in vivo, mice
Experimental: The method of Lagrange et al. was used. Mice were sensitized intravenously (iv) with 10^5 SRBC in saline. After 4 days, the mice were given eliciting dose of the antigen: 10^8 SRBS in 20 mcl of sterile saline into right hind paw, left hind paw was injected with 20 mcl of sterile saline. In 24 hours after challenge, the foot pad edema volume was measured using a caliper. The difference in volume (mcl) between the right paw (antigen-injected) and left paw (saline-injected) is calculated (Δ) and used as edema volume.

[2] = system: anti-SRBC IgM secreting plasma cells (antibody-forming cells, AFC); assay type: in vivo; details: for AFC number increase, % of control: mice immunized with SRBC
Source text: Humoral-mediated immune response is routinely measured using the antibody-forming cell (AFC) assay. Primarily used for evaluating humoral immunity, this assay, in fact, evaluates overall immune competence including T- and B-cell function, antigen processing and presentation. Sheep Red Blood Cells (SRBC) are the most common T-dependent antigen used for this assay.
Primary IgM response after SRBC administration was quantitatively estimated using a modified hemolytic plaque-forming cell assay
Since SRBC are T-dependent antigen, a normal AFC response depends on multiple factors: antigen processing and presentation actuated by macrophages, appropriate T-cell signalling, B-cells differentiation, and affinity maturation of antibodies in plasma cells.
(§1) For induction of a primary humoral PFC response, C57BL/6J mice were immunized intraperitoneally with 0.1 ml of a 5% suspension of SRBC, containing 1×10^8 cells. On day 5 after immunization animals were sacrificed under deep ether anesthesia, spleens were dissected out and minced through a stainless steel mesh. Individual spleen cell suspensions were washed three times with Hank's BSS, nucleated cells number was determined with a haemocytometer, viability was assessed by exclusion of trypan blue and adjusted to 1×10^7 viable cells per ml in Medium 199 containing Earle's salts and L-glutamine.
(§2) For the PFC assay, suspensions containing 1×10^6 spleen cells, 1×10^9 SRBCs and guinea pig serum (diluted 1:10, a source of complement), were introduced into a Cunningham chambers (100 μl volume) and incubated for 1 h at 37° C. The number of hemolytic plaques, produced by anti-SRBC IgM secreting plasma cells, was counted using a light microscope, and the number of PFC determined for each mice was expressed per 1×10^6 spleen cells and per whole spleen.

[3] = system: antibody production (AFC) after Adriamycin immunosuppression; assay: Adriamycin-induced immunosuppression model, antibody (AFC) response to SRBC; assay type: in vivo, mice
Experimental: as §1, §2
Immunosupression in mice was induced by parentreral administration of Adriamycin or Cyclophosphamide. Mice were injected with Adriamycin intraperitoneally in a dose of 5 mg/kg one day before the immunization with SRBC. Cyclophosphamide was used in a dose of 100 mg/kg 24 hours before the antigen challenge with SRBC.
Even in this extreme situation, administration of 2-methyl-3-ethoxycarbonyl-4-(2-methoxyphenyl)-5-methoxy-(1-oxacyclopentene-2, example 6) in dose 2.5 mg/kg produces a nearly 3 folds increase in antibody levels. […] (See FIG. 8).

[4] = Administered dose related to LD50; assay type: in vivo; details: Levamisol dose 2.5 mg/kg
[5] = dose 10 mg/kg, mice sensitized with SRBC

| Compound | DTH foot pad edema, % of control [1, 5] [%] | AFC number increase, % of control ([2]; dose 2.5 mg/kg) [%] | AFC number increase, % of control ([2]; dose 5 mg/kg) [%] | AFC number increase, % of control ([2]; dose 10 mg/kg) [%] | further results |
| --- | --- | --- | --- | --- | --- |
| CCOC(=O)C1=C(C)OC(OC)C1c1cccnc1 (stereo not shown) [Example 13] | 180 | 168 | 201 | 191 | – |
| COc1cccc2c1C(=O)c1c(O)c3c(c(O)c1C2=O)C[C@@](O)(C(=O)CO)C[C@@H]3O[C@H]1C[C@H](N)[C@H](O)[C@H](C)O1 [Adriamycin] | – | – | – | – | Total number of AFC, % of initial values ([3]; after Adriamycin administration (5 mg/kg i.p.)): 1-2% |
| c1ccc([C@H]2CN3CCSC3=N2)cc1 [Levamisol, reference compound] | – | 121 | – | – | Antibody response in Adriamycin immunosuppression model ([3]; Adriamycin-induced immunosuppression): no antibody response; DTH foot pad edema, % of control ([1]; Levamisol positive control, dose 2.5 mg/kg): 240%; Cellular immune response increase ([1]; after Levamisol administration): 240%; Increase in antibody formation ([2]; Levamisol positive reference, dose 2.5 mg/kg): 20%; Toxic effects (AFC not determined at higher doses) ([2]; mouse, in vivo): ND (toxic effects); Administered dose as % of LD50 [4]: 10 % of LD50 |
| CCOC(=O)C1=C(C)OC(OC)C1c1ccccc1 (stereo not shown) [Example 5] | 200 | 202 | 324 | 259 | – |
| CCCCCCCCCC1C(C(=O)OCC)=C(C)OC1OC (stereo not shown) [Example 3] | 250 | 225 | 289 | 326 | – |
| CCOC(=O)C1=C(C)OC(OC)C1CC(C)C (stereo not shown) [Example 1] | 300 | 209 | 275 | 453 | – |
| CCOC(=O)C1=C(C)OC(OC)C1c1ccc(OC)cc1 (stereo not shown) [Example 15] | 160 | 291 | 312 | 267 | – |
| CCCCC1C(C(=O)OCC)=C(C)OC1OC (stereo not shown) [Example 12] | 230 | 251 | 239 | 291 | – |
| CCOC(=O)C1=C(C)OC(OC)C1c1ccccc1OC (stereo not shown) [Example 6] | 190 | 260 | 229 | 440 | Increase in antibody levels ([3]; dose 2.5 mg/kg, Adriamycin 5 mg/kg i.p. one day before SRBC immunization): ~3 folds |
| CCCCCC1C(C(=O)OCC)=C(C)OC1OC (stereo not shown) [Example 2] | 220 | 360 | 331 | 330 | – |
| COC1OC(C)=C(C(=O)O)C1CC(C)C (stereo not shown) [Example 9] | 360 | 230 | 320 | 360 | – |
| CCCCCCCCCCCC1C(C(=O)OCC)=C(C)OC1OC (stereo not shown) [Example 4] | 240 | 253 | 330 | 282 | – |
| CCCCCCC1C(C(=O)OCC)=C(C)OC1OC (stereo not shown) [Example 11] | 210 | 245 | 241 | 287 | – |
| CCOC(=O)C1=C(C(Br)Br)OC(OC)C1c1ccccc1 (stereo not shown) [Example 8] | 260 | 188 | 276 | 271 | – |
| CCOC(=O)C1=C(C)OC(OC)C1c1ccc(Cl)cc1Cl (stereo not shown) [Example 7] | 230 | 269 | 302 | 358 | – |
| CCOC(=O)C1=C(C)OC(OC)C1c1cccc(OC)c1 (stereo not shown) [Example 14] | 200 | 135 | 187 | 254 | – |
| CCOC(=O)C1=C(CC)OC(OC)C1c1ccc(C)cc1C (stereo not shown) [Example 16] | 140 | 165 | 192 | 217 | – |
| COC1OC(C)=C(C(=O)[O-])C1CC(C)C.[Li+] (stereo not shown) [Example 10] | 360 | 290 | 320 | 470 | – |
